Results taken from patent US9994546B2, “Cyclopropylamines as LSD1 inhibitors” (Incyte Corporation, priority 2014, dated 2018).
pIC50: −log10 of the molar value.

Molecular target: LSD-1 enzyme (Homo sapiens (Human), UniProt O60341)
Test: LANCE LSD1/KDM1A demethylase assay (LSD1 histone demethylase biochemical assay)
Conditions: 1 nM LSD-1 enzyme, 1 hour preincubation at 25° C., 0.4 μM biotin-labeled Histone H3 peptide substrate
Method: LANCE LSD1/KDM1A demethylase assay—10 μL of 1 nM LSD-1 enzyme (ENZO BML-SE544-0050) in the assay buffer (50 mM Tris, pH 7.5, 0.01% Tween-20, 25 mM NaCl, 5 mM DTT) were preincubated for 1 hour at 25° C. with 0.8 μL compound/DMSO dotted in black 384 well polystyrene plates. […] After stopping the reactions plates were incubated for 30 minutes and read on a PHERAstar FS plate reader (BMG Labtech).

Row | Structure (SMILES) | pIC50
1 | N#CCC1(N2CCC(CN[C@@H]3C[C@H]3c3ccccc3)CC2)CN(C(=O)c2cc(F)cc(F)c2)C1 (relative stereo) [Example 44, [1-(3,5-Difluorobenzoyl)-3-(4-{[(trans-2-phenylcyclopropyl)amino]methyl}piperidin-1-yl)azetidin-3-yl]acetonitrile] | ≥ 7.00
2 | O=C(O)CC1(N2CCC(N[C@@H]3C[C@H]3c3ccccc3)CC2)CN(Cc2cncnc2)C1 [Example 126, [3-(4-{[(1R,2S)-2-phenylcyclopropyl]amino}piperidin-1-yl)-1-(pyrimidin-5-ylmethyl)azetidin-3-yl]acetic acid] | ≥ 7.00
3 | CCS(=O)(=O)N1CC(CC#N)(N2CCC(N[C@@H]3C[C@H]3c3ccccc3)CC2)C1 [Example 62, [1-(ethylsulfonyl)-3-(4-{[(1R,2S)-2-phenylcyclopropyl]amino}piperidin-1-yl)azetidin-3-yl]acetonitrile] | ≥ 7.00
4 | N#CCC1(N2CCC(CN[C@@H]3C[C@H]3c3ccccc3)CC2)CN(C(=O)c2ccccc2F)C1 (relative stereo) [Example 46, [1-(2-Fluorobenzoyl)-3-(4-{[(trans-2-phenylcyclopropyl)amino]methyl}piperidin-1-yl)azetidin-3-yl]acetonitrile] | ≥ 7.00
5 | C[C@H](NC(=O)c1cc(F)c(N2CC(CC#N)(N3CC(CNC4CC4c4ccccc4)C3)C2)cc1F)C(F)(F)F (stereo partly drawn) [Example 27, 4-(3′-(Cyanomethyl)-3-{[(trans-2-phenylcyclopropyl)amino]methyl}-1,3′-biazetidin-1′-yl)-2,5-difluoro-N-[(1S)-2,2,2-trifluoro-1-methylethyl]benzamide] | ≥ 7.00
6 | N#CCC1(N2CCC(N[C@@H]3C[C@H]3c3ccccc3)CC2)CN(C(=O)N2CC(O)C2)C1 [Example 89, [1-[(3-hydroxyazetidin-1-yl)carbonyl]-3-(4-{[(1R,2S)-2-phenylcyclopropyl]amino}piperidin-1-yl)azetidin-3-yl]acetonitrile] | ≥ 7.00
7 | CC(=O)N1CCC(CC#N)(N2CC(CN[C@@H]3C[C@H]3c3ccccc3)C2)CC1 (relative stereo) [Example 18, [1-Acetyl-4-(3-{[(trans-2-phenylcyclopropyl)amino]methyl}azetidin-1-yl)piperidin-4-yl]acetonitrile] | ≥ 7.00
8 | N#CCC1(N2CCC(N[C@@H]3C[C@H]3c3ccccc3)CC2)CN([C@H]2CC[C@@H](O)CC2)C1 [Example 73, [1-(cis-4-hydroxycyclohexyl)-3-(4-{[(1R,2S)-2-phenylcyclopropyl]amino}piperidin-1-yl)azetidin-3-yl]acetonitrile] | ≥ 7.00
9 | CN(C)C(=O)CC1(N2CCC(N[C@@H]3C[C@H]3c3ccccc3)CC2)CN(CC2CC2)C1 [Example 123, 2-[1-(cyclopropylmethyl)-3-(4-{[(1R,2S)-2-phenylcyclopropyl]amino}piperidin-1-yl)azetidin-3-yl]-N,N-dimethylacetamide] | ≥ 7.00
10 | CN(C)C(=O)CC1(N2CCC(N[C@@H]3C[C@H]3c3ccccc3)CC2)CN(C(=O)N(C)C)C1 [Example 96, 3-[2-(dimethylamino)-2-oxoethyl]-N,N-dimethyl-3-(4-{[(1R,2S)-2-phenylcyclopropyl]amino}piperidin-1-yl)azetidine-1-carboxamide] | ≥ 7.00
11 | c1ccc([C@@H]2C[C@H]2NCC2CN(C3CCN(c4ccccc4)CC3)C2)cc1 (relative stereo) [Example 29, Trans-2-phenyl-N-{[1-(1-phenylpiperidin-4-yl)azetidin-3-yl]methyl}cyclopropanamine] | ≥ 7.00
12 | N#CCC1(N2CCC(N[C@@H]3C[C@H]3c3ccccc3)CC2)CN(C(=O)c2cnccn2)C1 [Example 111, [3-(4-{[(1R,2S)-2-phenylcyclopropyl]amino}piperidin-1-yl)-1-(pyrazin-2-ylcarbonyl)azetidin-3-yl]acetonitrile] | ≥ 7.00
13 | N#CCC1(N2CCC(N[C@@H]3C[C@H]3c3ccccc3)CC2)CN(C(=O)[C@H]2CC[C@H](O)CC2)C1 [Example 82, [1-[(trans-4-hydroxycyclohexyl)carbonyl]-3-(4-{[(1R,2S)-2-phenylcyclopropyl]amino}piperidin-1-yl)azetidin-3-yl]acetonitrile] | ≥ 7.00
14 | CCOC(=O)N1CCC(CC#N)(N2CC(CN[C@@H]3C[C@H]3c3ccccc3)C2)CC1 (relative stereo) [Example 22, Ethyl 4-(cyanomethyl)-4-(3-{[(trans-2-phenylcyclopropyl)amino]methyl}azetidin-1-yl)piperidine-1-carboxylate] | ≥ 7.00
15 | N#CCC1(N2CCC(N[C@@H]3C[C@H]3c3ccccc3)CC2)CN(C2CCOCC2)C1 [Example 75, [3-(4-{[(1R,2S)-2-phenylcyclopropyl]amino}piperidin-1-yl)-1-(tetrahydro-2H-pyran-4-yl)azetidin-3-yl]acetonitrile] | ≥ 7.00
16 | N#CCC1(N2CCC(N[C@@H]3C[C@H]3c3ccccc3)CC2)CN(c2ccc(C#N)cc2)C1 (relative stereo) [Example 13, 4-(3-(Cyanomethyl)-3-{4-[(trans-2-phenylcyclopropyl)amino]piperidin-1-yl}azetidin-1-yl)benzonitrile] | ≥ 7.00

Row | Structure (SMILES) | pIC50
17 | CCS(=O)(=O)N1CC(CC#N)(N2CCC(CN[C@@H]3C[C@H]3c3ccccc3)CC2)C1 (relative stereo) [Example 31, [1-(Ethylsulfonyl)-3-(4-{[(trans-2-phenylcyclopropyl)amino]methyl}piperidin-1-yl)azetidin-3-yl]acetonitrile] | 6.30 to 7.00
18 | N#CCC1(N2CCC(CN[C@@H]3C[C@H]3c3ccccc3)CC2)CN(C(=O)c2ccccc2)C1 (relative stereo) [Example 45, [1-Benzoyl-3-(4-{[(trans-2-phenylcyclopropyl)amino]methyl}piperidin-1-yl)azetidin-3-yl]acetonitrile] | ≥ 7.00
19 | CN1CC(CC#N)(N2CCC(N[C@@H]3C[C@H]3c3ccccc3)CC2)C1 [Example 59, [1-methyl-3-(4-{[(1R,2S)-2-phenylcyclopropyl]amino}piperidin-1-yl)azetidin-3-yl]acetonitrile] | ≥ 7.00
20 | N#CCC1(N2CCC(CN[C@@H]3C[C@H]3c3ccccc3)CC2)CN(C(=O)Nc2cccc(Cl)c2F)C1 (relative stereo) [Example 43, N-(3-Chloro-2-fluorophenyl)-3-(cyanomethyl)-3-(4-{[(trans-2-phenylcyclopropyl)amino]methyl}piperidin-1-yl)azetidine-1-carboxamide] | ≥ 7.00
21 | CN(C)C(=O)CC1(N2CCC(N[C@@H]3C[C@H]3c3ccccc3)CC2)CN(S(C)(=O)=O)C1 [Example 90, N,N-dimethyl-2-(1-(methylsulfonyl)-3-(4-(((1R,2S)-2-phenylcyclopropyl)amino)piperidin-1-yl)azetidin-3-yl)acetamide] | ≥ 7.00
22 | N#CCC1(N2CC(CN[C@@H]3C[C@H]3c3ccccc3)C2)CCN(C(=O)c2ccc(F)cc2)CC1 (relative stereo) [Example 19, [1-(4-Fluorobenzoyl)-4-(3-{[(trans-2-phenylcyclopropyl)amino]methyl}azetidin-1-yl)piperidin-4-yl]acetonitrile] | ≥ 7.00
23 | CN1CCC(CC#N)(N2CC(CN[C@@H]3C[C@H]3c3ccccc3)C2)CC1 (relative stereo) [Example 17, [1-Methyl-4-(3-{[(trans-2-phenylcyclopropyl)amino]methyl}azetidin-1-yl)piperidin-4-yl]acetonitrile] | ≥ 7.00
24 | N#CCC1(N2CCC(N[C@@H]3C[C@H]3c3ccccc3)CC2)CN(S(N)(=O)=O)C1 [Example 65, 3-(cyanomethyl)-3-(4-{[(1R,2S)-2-phenylcyclopropyl]amino}piperidin-1-yl)azetidine-1-sulfonamide] | ≥ 7.00
25 | CNC(=O)CC1(N2CCC(N[C@@H]3C[C@H]3c3ccccc3)CC2)CN(C(=O)OC)C1 [Example 95, methyl 3-[2-(methylamino)-2-oxoethyl]-3-(4-{[(1R,2S)-2-phenylcyclopropyl]amino}piperidin-1-yl)azetidine-1-carboxylate] | ≥ 7.00
26 | N#CCC1(N2CCC(CN[C@@H]3C[C@H]3c3ccccc3)CC2)CN(c2ncccc2C(F)(F)F)C1 (relative stereo) [Example 36, {3-(4-{[(trans-2-Phenylcyclopropyl)amino]methyl}piperidin-1-yl)-1-[3-(trifluoromethyl)pyridin-2-yl]azetidin-3-yl}acetonitrile] | ≥ 7.00
27 | CCS(=O)(=O)N1CC(CC(=O)N(C)C)(N2CCC(N[C@@H]3C[C@H]3c3ccccc3)CC2)C1 [Example 70, 2-[1-(ethylsulfonyl)-3-(4-{[(1R,2S)-2-phenylcyclopropyl]amino}piperidin-1-yl)azetidin-3-yl]-N,N-dimethylacetamide] | ≥ 7.00
28 | O=C(O)CC1(N2CCC(N[C@@H]3C[C@H]3c3ccccc3)CC2)CN(Cc2cscn2)C1 [Example 127, [3-(4-{[(1R,2S)-2-phenylcyclopropyl]amino}piperidin-1-yl)-1-(1,3-thiazol-4-ylmethyl)azetidin-3-yl]acetic acid] | ≥ 7.00
29 | CNC(=O)CN1CC(CC#N)(N2CCC(N[C@@H]3C[C@H]3c3ccccc3)CC2)C1 [Example 78, 2-[3-(cyanomethyl)-3-(4-{[(1R,2S)-2-phenylcyclopropyl]amino}piperidin-1-yl)azetidin-1-yl]-N-methylacetamide] | ≥ 7.00
30 | N#CCC1(N2CCC(N[C@@H]3C[C@H]3c3ccccc3)CC2)CN([C@H]2CC[C@H](O)CC2)C1 [Example 72, [1-(trans-4-hydroxycyclohexyl)-3-(4-{[(1R,2S)-2-phenylcyclopropyl]amino}piperidin-1-yl)azetidin-3-yl]acetonitrile] | ≥ 7.00
31 | N#CCC1(N2CCC(N[C@@H]3C[C@H]3c3ccccc3)CC2)CN(C(=O)C2CCOC2)C1 (stereo partly drawn) [Example 108, [3-(4-{[(1R,2S)-2-phenylcyclopropyl]amino}piperidin-1-yl)-1-(tetrahydrofuran-3-ylcarbonyl)azetidin-3-yl]acetonitrile] | ≥ 7.00
